{"source": "patent US12318388B2", "about": "“Pyrimidine derivatives for prevention and treatment of gram-negative bacterial infection, contamination and fouling” (UNIVERSITÉ DE LIÈGE, priority 2019, dated 2025)", "assay_type_in_all_cases": "cell-based", "key": {"[1]": {"system": "Escherichia coli (ATCC 8739)", "test": "Minimal Inhibitory Concentration (MIC) on Escherichia coli with or without PMBN, OD600 after O/N growth", "conditions": "for MIC: molecule alone", "description": "The Minimal Inhibitory Concentration (MIC) of molecules 2329, 2412, 2452 and 2461 together with polymyxin B nonapeptide (PMBN) was determined on Escherichia coli (ATCC 8739) according to EUCAST (European Committee on Antimicrobial Susceptibility Testing) recommendations.\n(§1) Briefly, a single colony grown on a Luria-Bertani Agar (LB) plate was resuspended and cultured in the LB medium overnight (O/N) in aerobic conditions (37° C. with 220 rpm shaking), next day a 1:50 inoculum in Mueller-Hinton broth (MHB) was incubated in aerobic conditions for 1h30 (OD=0.08-0.1) and an inoculum of 1:300 dilution, corresponding to 3×10^6 CFU/ml, was incubated in presence or absence of different concentrations of the molecules in 1% DMSO (vehicle) with or without Polymyxin B nonapeptide (PMBN) at 40 μg/ml. After O/N growth the OD of each culture was measured at 600 nm in a spectrophotometer (OD600). The MIC represents the concentration at which there is no visible growth of bacteria, i.e. ΔOD at 600 nm equal to zero wherein ΔOD is the difference between the resulting optical density (OD) with the molecule together with PMBN, and the optical density (OD) of the blank (blank is the medium) alone.\n(§2) A single colony grown on an Lurian-Bertani (LB) agar plate is resuspended and cultured in LB medium overnight (O/N) in aerobic conditions (37° C. with 220 rpm shaking), next day a 1:50 inoculum in Mueller-Hinton broth (MHB) is incubated in aerobic conditions for 1h30 (OD=0.08-0.1) and an inoculum of 1:300 dilution, corresponding to 3×10^6 CFU/ml, is incubated in presence or absence of different concentrations of the tested molecules in 1% DMSO (vehicle) with or without PMBN at 40 μg/ml. After O/N growth the OD of each culture was measured at 600 nm (OD600) in a spectrophotometer (Victor 3-Perkin Elmer). The MIC represents the concentration at which there is no visible growth of bacteria, i.e. ΔOD at 600 nm equal to zero wherein ΔOD is the difference between the resulting optical density (OD) with the molecule together with PMBN, and the optical density (OD) of the blank (blank is the medium) alone.\nas §1, with “cultured in LB medium” for “cultured in the LB medium”, “of the above-mentioned molecules in” for “of the molecules in”\nas §2, with “a Luria-Bertani” for “an Lurian-Bertani”, “above-mentioned pyrazolopyrimidine molecule” for “tested molecules”, “alone. […]” for “alone.”"}, "[2]": {"system": "Pseudomonas aeruginosa (ATCC27853)", "test": "Minimal Inhibitory Concentration (MIC) on Pseudomonas aeruginosa with or without PMBN", "description": "A single colony grown on an tryptic soy agar plate is resuspended and cultured in tryptic soy broth medium overnight (O/N) in aerobic conditions (37° C. with 220 rpm shaking), next day a 1:100 inoculum in Mueller-Hinton broth (MHB) is incubated in aerobic conditions for 3h (OD=0.5-0.6) and an inoculum of 1:1000 dilution, corresponding to 1-3×10^5 CFU/ml, is incubated in presence or absence of different concentrations of the tested molecules in 1% DMSO (vehicle) with or without PMBN at 0.5 μg/ml. After 28-30h growth the OD of each culture was measured at 600 nm (OD600) in a spectrophotometer (Victor 3-Perkin Elmer). The MIC represents the concentration at which there is no visible growth of bacteria, i.e. ΔOD at 600 nm equal to zero (blank is the medium alone) wherein ΔOD is the difference between the resulting optical density (OD) with the molecule together with PMBN, and the optical density (OD) of the blank (blank is the medium) alone."}, "[3]": {"system": "E. coli (ATCC 8739) biofilm", "test": "Inhibition of E. coli biofilm formation (crystal violet, biofilm mass)", "conditions": "for E. coli biofilm mass expressed in percentage: replicate values", "description": "1.5×10^4 CFU of E. coli (ATCC 8739) in early logarithmic phase were added in a well of a 48-well polystyrene plate containing Luria Bertani (LB) medium supplemented with 5% mannose (purchased from Sigma-aldrich #M6020-25G) and incubated for 48h at 37° C. The incubation was carried in static conditions in presence or absence of different concentrations of the molecules 2329 or 2666 in combination or not with the penetrating agent polymyxin B nonapeptide (PMBN) (35 μg/ml) (provided by Sigma-aldrich #P2076-5MG). After incubation, planktonic bacteria, which are bacteria floating in the liquid medium, were removed and adherent bacteria were washed 2 times in PBS. Crystal Violet (Sigma-aldrich #C0775-25G) (1% solution in dH2O) was then added to the wells for 15 min at RT to stain the biofilm. Wells were washed 3 times with PBS (phosphate buffered saline provided by Lonza #17-516F) to eliminate unbound crystal violet and […] Acetic Acid 20% was added and incubated at RT for 10 min. The absorbance of the solution was measured at 570 nm with an Infinite 200 PRO (Tecan) reflecting the total biomass of the biofilm, which corresponds to the sum of live and dead bacteria. The Biofilm Mass, expressed in percentage, is calculated by the following formula: Abs(sample)/Abs(DMSO 1%)*100, wherein the Abs(sample) or Abs(DMSO) represents the difference between the absorbance of the sample or DMSO and the blank (blank is the medium alone without bacteria)."}}, "note": "Several values for one entry are separate records, joined by “and”; a condition that tells them apart may be missing. Identical values can stand only once. Entries after “also recorded” stand apart in the source; their conditions may differ."}
{"molecule": "CCCSc1nc(N[C@@H]2C[C@H]2c2ccc(F)c(F)c2)c2ncn(C)c2n1", "note": "[molecule 2329, N-((1R,2S)-2-(3,4-difluorophenyl)cyclopropyl)-9-methyl-2-(propylthio)-9H-purin-6-amine]", "values": [{"measurement": "OD600 nm after O/N growth of Escherichia coli (FIG. 4)", "setting": "[1]; 10 μM with 40 μg/ml PMBN", "result": "killed all bacteria"}, {"measurement": "MIC", "setting": "[1]; E. coli (ATCC 8739)", "result": ">100", "unit": "µM"}, {"measurement": "Minimal inhibitory concentration With PMBN", "setting": "[1]; E. coli (ATCC 8739), together with PMBN at 40 μg/ml", "result": 10, "unit": "µM"}, {"measurement": "MIC", "setting": "[1]; Escherichia coli, ATCC8739, E. coli (ATCC 8739)", "result": "> 100", "unit": "µM"}, {"measurement": "Activity against Escherichia coli (ATCC 8739), conclusion", "setting": "[1]; with 40 μg/ml PMBN", "result": "bactericidal activity"}, {"measurement": "Minimal inhibitory concentration without PMBN", "setting": "[2]; Pseudomonas aeruginosa (ATCC 27853), molecule alone", "result": ">100", "unit": "µM"}, {"measurement": "Minimal inhibitory concentration With PMBN", "setting": "[2]; Pseudomonas aeruginosa (ATCC 27853), together with PMBN at 0.5 μg/ml", "result": 50, "unit": "µM"}, {"measurement": "Effect on E. coli biofilm formation (FIG. 2)", "setting": "[3]; 5 μM combined with 35 μg/ml PMBN", "result": "fully inhibited"}, {"measurement": "E. coli biofilm mass expressed in percentage", "setting": "[3]; 2329 20 μM without PMBN", "result": "110.45 percentage and 124.24 percentage and 97.41 percentage and 107.12 percentage"}, {"measurement": "E. coli biofilm mass expressed in percentage", "setting": "[3]; P + 2329 5 μM (PMBN 35 μg/ml)", "result": "12.79 percentage and 11.45 percentage and −1.25 percentage and −1.59 percentage"}, {"measurement": "E. coli biofilm mass expressed in percentage", "setting": "[3]; P + 2329 10 μM (PMBN 35 μg/ml)", "result": "0.12 percentage and −1.01 percentage and 2.96 percentage and 3.11 percentage"}, {"measurement": "Effect on E. coli biofilm growth (FIG. 2)", "setting": "[3]; molecule alone, without PMBN", "result": "no effect"}]}
{"molecule": "Polymyxin B nonapeptide [PMBN, reference compound]", "values": [{"measurement": "Inhibition of E. coli growth by PMBN alone", "setting": "[1]; 40 μg/ml PMBN alone", "result": "unable to inhibit; also recorded: did not inhibit"}, {"measurement": "Inhibition of Pseudomonas aeruginosa growth by PMBN alone", "setting": "[2]; 0.5 μg/ml PMBN alone", "result": "did not inhibit"}, {"measurement": "Effect on E. coli biofilm growth (FIG. 2)", "setting": "[3]; PMBN 35 μg/ml alone", "result": "reduced by half"}, {"measurement": "E. coli biofilm mass expressed in percentage", "setting": "[3]; PMBN 35 μg/ml alone", "result": "47.94 percentage and 48.98 percentage and 53.90 percentage and 50.87 percentage"}]}
